As usually defined, the DC50 is the midpoint of the concentration-degradation curve.

Our source for the DC50 values is patent US20260256925A1, “INDAZOLE DERIVATIVES AS ESTROGEN RECEPTOR DEGRADERS” (REGENTS OF THE UNIVERSITY OF MICHIGAN, priority 2022, published 2026).

The assay concerns the target T1, ER (Homo sapiens, UniProt P03372).
T1 construct: endogenous in cells; probably T47D or MCF-7
T1 sequence (P03372 1-595): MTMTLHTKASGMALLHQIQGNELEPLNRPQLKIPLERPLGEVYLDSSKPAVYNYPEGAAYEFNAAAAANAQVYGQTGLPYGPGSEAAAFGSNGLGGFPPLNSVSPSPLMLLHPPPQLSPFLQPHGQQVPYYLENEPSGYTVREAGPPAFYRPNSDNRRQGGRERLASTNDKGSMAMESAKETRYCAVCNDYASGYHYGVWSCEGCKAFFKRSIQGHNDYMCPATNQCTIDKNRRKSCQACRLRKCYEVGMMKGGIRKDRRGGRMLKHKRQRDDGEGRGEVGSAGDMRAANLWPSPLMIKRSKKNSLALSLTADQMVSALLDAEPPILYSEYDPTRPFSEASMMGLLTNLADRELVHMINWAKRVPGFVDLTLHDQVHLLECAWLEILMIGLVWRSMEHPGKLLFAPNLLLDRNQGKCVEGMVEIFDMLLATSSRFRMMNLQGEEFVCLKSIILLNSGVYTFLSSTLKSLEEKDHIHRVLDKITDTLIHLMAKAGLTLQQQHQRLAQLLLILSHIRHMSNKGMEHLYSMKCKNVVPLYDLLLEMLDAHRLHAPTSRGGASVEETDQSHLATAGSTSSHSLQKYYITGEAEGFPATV
Kind of assay: Western blot analysis (compounds B1-B126). In kind it is cell-based. The settings on record: ER degradation, read-out: Traditional Western Degradation potency (DC50). How it is done: Western Blot Analysis. The cells that are treated with the compounds are lysed in Radioimmunoprecipitation Assay Protein Lysis and Extraction Buffer (e.g., 25 mmol/L Tris.HCl, pH 7.6, 150 mmol/L NaCl, 1% Nonidet P-40, 1% sodium deoxycholate, and 0.1% sodium dodecyl sulfate) containing proteinase inhibitor cocktail. Equal amounts of total protein are electrophoresed through 10% SDS-polyacrylamide gels after determination of protein concentration by BCA assay. The separated protein bands are transferred onto PVDF membranes and blotted against different antibodies. The blots are scanned, and the band intensities are quantified (e.g., by using GelQuant.NET software provided by biochemlabsolutions.com). The relative mean intensity of target proteins is expressed after normalization to the intensity of glyceraldehyde-3-phosphate dehydrogenase bands.
Western Blot Analysis. Western blot analysis was performed essentially as described previously. The cells treated with indicated compounds were lysed in Radioimmunoprecipitation Assay Protein Lysis and Extraction Buffer (25 mmol/L Tris.HCl, pH 7.6, 150 mmol/L NaCl, 1% Nonidet P-40, 1% sodium deoxycholate, and 0.1% sodium dodecyl sulfate) containing proteinase inhibitor cocktail (Roche Diagnostics, Mannheim, Germany). Equal amounts of total protein were electrophoresed through 10% SDS-polyacrylamide gels after determination of protein concentration by BCA assay (Fisher Scientific, Pittsburgh, PA). The separated protein bands were transferred onto PVDF membranes (GE Healthcare Life Sciences, Marlborough, MA) and blotted against different antibodies, as indicated. The blots were scanned, and the band intensities were quantified using GelQuant.NET software provided by biochemlabsolutions.com. The relative mean intensity of target proteins was expressed after normalization to the intensity of glyceraldehyde-3-phosphate dehydrogenase bands.
Regarding `C[C@@H]1Cc2c(ccc3[nH]ncc23)[C@@H](c2c(F)cc(N3CCC4(CC3)CN(C(=O)CN3Cc5cc6c(cc5C3)C(=O)N(C3CCC(=O)NC3=O)C6=O)C4)cc2F)N1CC(F)F` (stereo partly drawn) [Compound B4, 6-(2-(7-(4-((6S,8R)-7-(2,2-difluoroethyl)-8-methyl-6,7,8,9-tetrahydro-3H-pyrazolo[4,3-f]isoquinolin-6-yl)-3,5-difluorophenyl)-2,7-diazaspiro[3.5]nonan-2-yl)-2-oxoethyl)-2-(2,6-dioxopiperidin-3-yl)-6,7-dihydropyrrolo[3,4-f]isoindole-1,3(2H,5H)-dione], the DC50 is less than 10 nM.

On to `C[C@@H]1Cc2c(ccc3[nH]ncc23)[C@@H](c2c(F)cc(N3CCC4(CCN(CC(=O)N5Cc6cc7c(cc6C5)C(=O)N(C5CCC(=O)NC5=O)C7=O)CC4)CC3)cc2F)N1CC(F)F` (stereo partly drawn) [Compound B5, 6-(2-(9-(4-((6S,8R)-7-(2,2-difluoroethyl)-8-methyl-6,7,8,9-tetrahydro-3H-pyrazolo[4,3-f]isoquinolin-6-yl)-3,5-difluorophenyl)-3,9-diazaspiro[5.5]undecan-3-yl)acetyl)-2-(2,6-dioxopiperidin-3-yl)-6,7-dihydropyrrolo[3,4-f]isoindole-1,3(2H,5H)-dione], for which the DC50 was 10 to 100 nM.

As to `C[C@@H]1Cc2c(ccc3[nH]ncc23)[C@@H](c2c(F)cc(N3CCC(C(=O)N4CCC(N5Cc6cc7c(cc6C5)C(=O)N(C5CCC(=O)NC5=O)C7=O)CC4)CC3)cc2F)N1CC(F)F` (stereo partly drawn) [Compound B6, 6-(1-(1-(4-((6S,8R)-7-(2,2-difluoroethyl)-8-methyl-6,7,8,9-tetrahydro-3H-pyrazolo[4,3-f]isoquinolin-6-yl)-3,5-difluorophenyl)piperidine-4-carbonyl)piperidin-4-yl)-2-(2,6-dioxopiperidin-3-yl)-6,7-dihydropyrrolo[3,4-f]isoindole-1,3(2H,5H)-dione], the DC50 is less than 10 nM.

In the case of `C[C@@H]1Cc2c(ccc3[nH]ncc23)[C@@H](c2c(F)cc(C3CCN(C(=O)[C@H]4CC[C@H](N5Cc6cc7c(cc6C5)C(=O)N(C5CCC(=O)NC5=O)C7=O)CC4)CC3)cc2F)N1CC(F)F` (stereo partly drawn) [Compound B7, 6-((1S,4r)-4-(4-(4-((6S,8R)-7-(2,2-difluoroethyl)-8-methyl-6,7,8,9-tetrahydro-3H-pyrazolo[4,3-f]isoquinolin-6-yl)-3,5-difluorophenyl)piperidine-1-carbonyl)cyclohexyl)-2-(2,6-dioxopiperidin-3-yl)-6,7-dihydropyrrolo[3,4-f]isoindole-1,3(2H,5H)-dione], the DC50 was more than 100 nM. Take `C[C@@H]1Cc2c(ccc3[nH]ncc23)[C@@H](c2c(F)cc(C3CCN(C(=O)[C@H]4CC[C@@H](N5Cc6cc7c(cc6C5)C(=O)N(C5CCC(=O)NC5=O)C7=O)CC4)CC3)cc2F)N1CC(F)F` (stereo partly drawn) [Compound B8, 6-((1R,4s)-4-(4-(4-((6S,8R)-7-(2,2-difluoroethyl)-8-methyl-6,7,8,9-tetrahydro-3H-pyrazolo[4,3-f]isoquinolin-6-yl)-3,5-difluorophenyl)piperidine-1-carbonyl)cyclohexyl)-2-(2,6-dioxopiperidin-3-yl)-6,7-dihydropyrrolo[3,4-f]isoindole-1,3(2H,5H)-dione]: the DC50 is more than 100 nM. As for `C[C@@H]1Cc2c(ccc3[nH]ncc23)[C@@H](c2ccc(C3CCC(C(=O)N4CCC(N5Cc6cc7c(cc6C5)C(=O)N(C5CCC(=O)NC5=O)C7=O)CC4)CC3)cn2)N1CC(F)(F)F` (stereo partly drawn) [Compound B10, 2-(2,6-dioxopiperidin-3-yl)-6-(1-(4-(6-((6S,8R)-8-methyl-7-(2,2,2-trifluoroethyl)-6,7,8,9-tetrahydro-3H-pyrazolo[4,3-f]isoquinolin-6-yl)pyridin-3-yl)cyclohexane-1-carbonyl)piperidin-4-yl)-6,7-dihydropyrrolo[3,4-f]isoindole-1,3(2H,5H)-dione], the figure is 10 to 100 nM; as for `C[C@@H]1Cc2c(ccc3[nH]ncc23)[C@@H](c2ccc(C3=CCC(C(=O)N4CCC(N5Cc6cc7c(cc6C5)C(=O)N(C5CCC(=O)NC5=O)C7=O)CC4)CC3)cn2)N1CC(F)(F)F` (stereo partly drawn) [Compound B11, 2-(2,6-dioxopiperidin-3-yl)-6-(1-(4-(6-((6S,8R)-8-methyl-7-(2,2,2-trifluoroethyl)-6,7,8,9-tetrahydro-3H-pyrazolo[4,3-f]isoquinolin-6-yl)pyridin-3-yl)cyclohex-3-ene-1-carbonyl)piperidin-4-yl)-6,7-dihydropyrrolo[3,4-f]isoindole-1,3(2H,5H)-dione], less than 10 nM; as for `C[C@@H]1Cc2c(ccc3[nH]ncc23)[C@@H](c2c(F)cc(N3CCC4(CCN(C(=O)CN5Cc6cc7c(cc6C5)C(=O)N(C5CCC(=O)NC5=O)C7=O)CC4)C3)cc2F)N1CC(F)F` (stereo partly drawn) [Compound B12, 6-(2-(2-(4-((6S,8R)-7-(2,2-difluoroethyl)-8-methyl-6,7,8,9-tetrahydro-3H-pyrazolo[4,3-f]isoquinolin-6-yl)-3,5-difluorophenyl)-2,8-diazaspiro[4.5]decan-8-yl)-2-oxoethyl)-2-(2,6-dioxopiperidin-3-yl)-6,7-dihydropyrrolo[3,4-f]isoindole-1,3(2H,5H)-dione], 10 to 100 nM.

Turning to `C[C@@H]1Cc2c(ccc3[nH]ncc23)[C@@H](c2c(F)cc(N3CC4(CCN(C(=O)CN5Cc6cc7c(cc6C5)C(=O)N(C5CCC(=O)NC5=O)C7=O)CC4)C3)cc2F)N1CC(F)F` (stereo partly drawn) [Compound B13, 6-(2-(2-(4-((6S,8R)-7-(2,2-difluoroethyl)-8-methyl-6,7,8,9-tetrahydro-3H-pyrazolo[4,3-f]isoquinolin-6-yl)-3,5-difluorophenyl)-2,7-diazaspiro[3.5]nonan-7-yl)-2-oxoethyl)-2-(2,6-dioxopiperidin-3-yl)-6,7-dihydropyrrolo[3,4-f]isoindole-1,3(2H,5H)-dione], the DC50 was less than 10 nM. As to `C[C@@H]1Cc2c(ccc3[nH]ncc23)[C@@H](c2c(F)cc(N3CCC(CN4CC5(Cc6cc7c(cc6C5)C(=O)N(C5CCC(=O)NC5=O)C7=O)C4)CC3)cc2F)N1CC(F)F` (stereo partly drawn) [Compound B14, 1-((1-(4-((6S,8R)-7-(2,2-difluoroethyl)-8-methyl-6,7,8,9-tetrahydro-3H-pyrazolo[4,3-f]isoquinolin-6-yl)-3,5-difluorophenyl)piperidin-4-yl)methyl)-2′-(2,6-dioxopiperidin-3-yl)-5′,7′-dihydro-1′H-spiro[azetidine-3,6′-cyclopenta[f]isoindole]-1′,3′(2′H)-dione], the DC50 is more than 100 nM. The value for `COc1c2c(cc3c1C(=O)N(C1CCC(=O)NC1=O)C3=O)CN(CC(=O)N1CCC3(CC1)CCN(c1cc(F)c([C@@H]4c5ccc6[nH]ncc6c5C[C@@H](C)N4CC(F)F)c(F)c1)CC3)C2` (stereo partly drawn) [Compound B17, 6-(2-(9-(4-((6S,8R)-7-(2,2-difluoroethyl)-8-methyl-6,7,8,9-tetrahydro-3H-pyrazolo[4,3-f]isoquinolin-6-yl)-3,5-diazaspiro[5.5]undecan-3-yl)-2-difluorophenyl)-3,9-oxoethyl)-2-(2,6-dioxopiperidin-3-yl)-4-methoxy-6,7-dihydropyrrolo[3,4-f]isoindole-1,3(2H,5H)-dione] was less than 10 nM; that for `C[C@@H]1Cc2c(ccc3[nH]ncc23)[C@@H](c2c(F)cc(N3CCC(CN4CCN5c6cc7c(cc6N(C)C[C@@H]5C4)C(=O)N(C4CCC(=O)NC4=O)C7)CC3)cc2F)N1CC(F)F` (stereo partly drawn) [Compound B18, 3-((S)-3-((1-(4-((6S,8R)-7-(2,2-difluoroethyl)-8-methyl-6,7,8,9-tetrahydro-3H-pyrazolo[4,3-f]isoquinolin-6-yl)-3,5-difluorophenyl)piperidin-4-yl)methyl)-6-methyl-8-oxo-2,3,4,4a,5,6,8,10-octahydropyrazino[1,2-a]pyrrolo[3,4-g]quinoxalin-9(1H)-yl)piperidine-2,6-dione] was 10 to 100 nM; that for `C[C@@H]1Cc2c(ccc3[nH]ncc23)[C@@H](c2c(F)cc(N3CCC(CN4CCC(N5Cc6cc7c(cc6C5=O)CN(C5CCC(=O)NC5=O)C7=O)CC4)CC3)cc2F)N1CC(F)F` (stereo partly drawn) [Compound B19, 2-(1-((1-(4-((6S,8R)-7-(2,2-difluoroethyl)-8-methyl-6,7,8,9-tetrahydro-3H-pyrazolo[4,3-f]isoquinolin-6-yl)-3,5-difluorophenyl)piperidin-4-yl)methyl)piperidin-4-yl)-6-(2,6-dioxopiperidin-3-yl)-2,3,6,7-tetrahydropyrrolo[3,4-f]isoindole-1,5-dione] was less than 10 nM.
